These results are taken from US20240342216A1, “METHODS OF TREATING CANCER” (Therapeutics By Design, LLC, priority 2021, published 2024).

“Also recorded” adds a separate entry of the source.

Experiment [1] concerns bulk tumor cell growth from prostate cancer. The note with it: by activating SMAD 1/5/8 signaling; Bosukonda et al. 2009; cited from earlier work.
Experiment [2] relates to human breast cancer stem cells. Kind of experiment: FACS quantification of CD44+ and E-cadherin+ cells. The format is cell-based. The note with it: for percent loss of CD44+ cells / percent gain in E-cadherin+ cells: non-adherent culture 8 days, vs untreated; for change in CD44+ cells (stem cell phenotype), in words / change in E-Cadherin+ cells (epithelial phenotype), in words: vs untreated control. Here is the method: Untreated cells were incubated with APC labeled mouse anti-human antibody to CD44 antibody and FITC labeled rat anti-human E-Cadherin antibody. Cells were gated to exclude events in water and events due to cell death and debris. Cells were then gated to identify CD44+ and E-Cadherin+ populations based on corresponding fluorescence activity and labeled R7 and R11 respectively. […] Untreated cells were incubated with corresponding isotype antibodies, APC labeled mouse IgG1 and FITC labeled mouse IgG1. Cells were gated to exclude events in water and events due to cell death and debris.
(§1) Cells were plated and incubated for 24 hours to form tumorspheres. On day 2, cells were treated with 300 μM P123, followed by subsequent treatments on days 3, 5, and 8. Cells were then incubated with APC labeled mouse anti-human CD44 antibody and FITC labeled rat anti-human E-Cadherin antibody. Cells were gated to exclude events in water and events due to cell death and debris. Cells were then gated to identify CD44+ and E-Cadherin+ populations based on corresponding fluorescence activity and labeled R7 and R11 respectively. […] Cells were treated with P123 as described in (A). Cells were then incubated with corresponding isotype antibodies, APC labeled mouse IgG1 and FITC labeled mouse IgG1. Cells were gated to exclude events in water and events due to cell death and debris.
as §1, with “BMP-7 at 430 ng/ml with” for “300 μM P123, followed by”, “treatments at 362 ng/ml” for “treatments”, “day” for “days”, “3, 314 ng/ml on day” for “3,”, “277 ng/ml on day 8 (media was added at 10% volume resulting in decreased concentrations).” for “8.”, “BMP-7” for “P123”
Differentiation of chemo-resistant cancer stem cells, specifically a loss of its stem cell phenotype and self-renewal ability, could be a viable approach to the treatment of tumor recurrence and metastasis (Chirasani S R, Sternjak A, Wend P, et al. Bone morphogenetic protein-7 release from endogenous neural precursor cells suppresses the tumourigenicity of stem-like glioblastoma cells. Brain 2010, 133:1961-1972). Although this approach may or may not directly kill the cancer cells, it could make CSCs more responsive to conventional chemotherapies. Therefore, Peptide 123 and BMP-7 were examined to determine if they affected differentiation of human breast cancer stem cells. Sensitive flow cytometry method (Gupta V et al., Methods Mol Biol. 2011, 716: 179-191) to quantify CD44+, indicating stem cell phenotype, and E-cadherin+, indicating epithelial phenotype cells, after treatment with or without P123 (SEQ ID NO: 1) and BMP-7. Human breast cancer stem cells were grown in non-adherent cell suspension in serum-free medium for 8 Days. […] Importantly, the percent loss of CD44+ cells after treatment with the P123, 50%, was greater than that after treatment with BMP-7, 19% (FIGS. 4 and 5). Furthermore, a gain in E-cadherin+ cells was observed, which was proportional to the loss of CD44+ cells (FIGS. 4-6). Similarly, the percent gain in E-cadherin+ cells after treatment with P123, 50%, was greater than that after treatment with BMP-7, 19%, (FIG. 7).

Experiment [3] deals with human breast cancer stem cells. Kind of experiment: mammosphere (tumorsphere) formation assay, self-renewal in vitro. The note with it: for inhibition of mammosphere / tumorsphere formation: non-adherent culture, serum-free stem cell medium, 5 to 7 days. The experiment is classed as cell-based. Here is the method:
Isolated human breast cancer stem cells treated with BMP-7 (500 ng/ml) for 7 days in non-adherent culture.
To investigate Peptide 123 (SEQ ID NO: 1) and BMP-7 effects on cancer stem cell function, their ability to influence self-renewal in vitro by using the mammosphere assay was examined. The mammosphere assay was developed as a method to propagate mammary epithelial stem cells (MaSC) in vitro by Dontu et al. (Genes Dev 17: 1253-1270 (2003)).
A procedure as described in manufacturer's manual (ProMab, California) was followed to grow cancer stem cells into mammospheres. For mammosphere culture, isolated human breast cancer stem cells were seeded in six well ultralow adherence plates (Corning Inc., Corning, NY, USA) and grown as non-adherent cell suspensions in serum-free stem cell culture medium (ProMab, California). Primary and secondary mammosphere formation was achieved by using weekly trypsinization and dissociation, followed by reseeding in ultralow adherence six well plates.

On to “CYFDDSSNVLCKKYRS [Peptide 123, TDFRP, a peptide agonist of BMP signaling]”, for which the “inhibition of bulk tumor cell growth from prostate cancer” value in experiment [1] is “capable of inhibiting bulk tumor cell growth from prostate cancer”. For the same molecule, the “percent loss of CD44+ cells” value in experiment [2] (300 uM, treated days 2, 3, 5, 8) is 50%. Moreover, the “percent gain in E-cadherin+ cells” value in experiment [2] (300 uM) was determined as 50%. For the same molecule, the “change in CD44+ cells (stem cell phenotype), in words” value in experiment [2] (300 uM, listed as P123) is on record as “marked decline in CD44+ cells; also recorded: marked decrease in CD44+ cells”. Also, the “change in E-Cadherin+ cells (epithelial phenotype), in words” value in experiment [2] (300 uM, listed as P123) is listed as “marked increase in E-Cadherin+ cells; also recorded: majority of P123 treated cells were E-Cadherin+”. Besides, the “inhibition of mammosphere / tumorsphere formation” value in experiment [3] (300 μM) was “profound inhibition of tumorsphere formation”; in experiment [3] (300 μM, listed as P123), “profound inhibition of mammosphere formation”.

B1: BMP-7: bone morphogenetic protein-7, member of the transforming growth factor-beta superfamily (protein, UniProt P18075 293-431, looked up)
Bone morphogenetic protein 7: STGSKQRSQNRSKTPKNQEALRMANVAENSSSDQRQACKKHELYVSFRDLGWQDWIIAPEGYAAYYCEGECAFPLNSYMNATNHAIVQTLVHFINPETVPKPCCAPTQLNAISVLYFDDSSNVILKKYRNMVVRACGCH
B1: in experiment [2] (314-430 ng/ml), the “percent gain in E-cadherin+ cells” value came to 19%; the “percent loss of CD44+ cells” value amounted to 19%; the “change in CD44+ cells (stem cell phenotype), in words” value is “marked decline in CD44+ cells; also recorded: a decrease in CD44+ cells”; the “change in E-Cadherin+ cells (epithelial phenotype), in words” value was “an increase in E-Cadherin cells; also recorded: an increase E-Cadherin+ with a large portion of CD44+ remaining”. For the same molecule, in experiment [3] (500 ng/ml for 7 days, then 7 days with no treatment), the “mammosphere formation after withdrawal of treatment” value is recorded as “regained the ability to form tumorspheres; also recorded: significant increase in Mammosphere formation”. In experiment [3] (500 ng/ml), the “inhibition of mammosphere / tumorsphere formation” value was “inhibited tumorsphere formation; also recorded: moderate inhibition of mammosphere formation”.
